From ChEMBL document CHEMBL1201862, “PubChem BioAssay data set” (2004)
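Assay format: 96-well plates, 48-hour exposure. Abbreviation: GI50, concentration required for 50% inhibition of growth.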 The source made the active and inactive calls. Cut-off read from the data, not from the text of the source: active = GI50 up to about 1.1 µM and inactive = higher.

Legend:
Assay in all cases: NCI-60 cell line screen, 48 h
[1] = system: MDA-MB-435
[2] = system: SF-268
[3] = system: SK-OV-3
[4] = system: NCI-H23
[5] = system: K562
[6] = system: HCC 2998
[7] = system: SNB-19
[8] = system: SK-MEL-5
[9] = system: HOP-62
[10] = system: SN12C
[11] = system: HCT-116
[12] = system: ACHN
[13] = system: SK-MEL-28
[14] = system: BT-549
[15] = system: T47D
[16] = system: EKVX
[17] = system: HT-29
[18] = system: CAKI-1
[19] = system: MOLT-4
[20] = system: UACC-257
[21] = system: OVCAR-4
[22] = system: HCT-15
[23] = system: MDA-N
[24] = system: UACC-62
[25] = system: IGROV-1
[26] = system: U-251
[27] = system: Hs-578T
[28] = system: 786-0
[29] = system: NCI-H522
[30] = system: NCI-H460
[31] = system: COLO 205
[32] = system: SK-MEL-2
[33] = system: NCI/ADR-RES
[34] = system: OVCAR-5
[35] = system: RPMI-8226
[36] = system: OVCAR-8
[37] = system: SF-295
[38] = system: SR
[39] = system: SNB-75
[40] = system: CCRF-CEM
[41] = system: RXF 393
[42] = system: SW-620
[43] = system: DU-145
[44] = system: A549
[45] = system: KM12
[46] = system: PC-3
[47] = system: TK-10
[48] = system: HOP-92
[49] = system: UO-31
[50] = system: M14
[51] = system: SF-539
[52] = system: HL-60
[53] = system: LOX IMVI
[54] = system: Malme-3M
[55] = system: MCF7
[56] = system: NCI-H226
[57] = system: OVCAR-3
[58] = system: A498
[59] = system: MDA-MB-231

## COC(=O)C(CC12CC3CC(CC(C3)C1)C2)NC(=O)C(N)CC(=O)O (stereo unspecified)
[1]
  GI50: > 100 µM (inactive)
[2]
  GI50: > 100 µM (inactive)
[3]
  GI50: > 100 µM (inactive)
[4]
  GI50: > 100 µM (inactive)
[5]
  GI50: > 100 µM (inactive)
[6]
  GI50: > 100 µM (inactive)
[7]
  GI50: > 100 µM (inactive)
[8]
  GI50: > 100 µM (inactive)
[9]
  GI50: > 100 µM (inactive)
[10]
  GI50: > 100 µM (inactive)
[11]
  GI50: > 100 µM (inactive)
[12]
  GI50: > 100 µM (inactive)
[13]
  GI50: > 100 µM (inactive)
[14]
  GI50: > 100 µM (inactive)
[15]
  GI50: > 100 µM (inactive)
[16]
  GI50: > 100 µM (inactive)
[17]
  GI50: > 100 µM (inactive)
[18]
  GI50: > 100 µM (inactive)
[19]
  GI50: > 100 µM (inactive)
[20]
  GI50: > 100 µM (inactive)
[21]
  GI50: > 100 µM (inactive)
[22]
  GI50: > 100 µM
[23]
  GI50: > 100 µM (inactive)
[24]
  GI50: > 100 µM (inactive)
[25]
  GI50: > 100 µM (inactive)
[26]
  GI50: > 100 µM (inactive)
[27]
  GI50: > 100 µM (inactive)
[28]
  GI50: > 100 µM (inactive)
[29]
  GI50: > 100 µM (inactive)
[30]
  GI50: > 100 µM (inactive)
[31]
  GI50: > 100 µM (inactive)
[32]
  GI50: > 100 µM (inactive)
[33]
  GI50: > 100 µM (inactive)
[34]
  GI50: > 100 µM (inactive)
[35]
  GI50: > 100 µM (inactive)
[36]
  GI50: > 100 µM (inactive)
[37]
  GI50: > 100 µM (inactive)
[38]
  GI50: > 100 µM (inactive)
[39]
  GI50: > 100 µM (inactive)
[40]
  GI50: > 100 µM (inactive)
[41]
  GI50: > 100 µM (inactive)
[42]
  GI50: > 100 µM (inactive)
[43]
  GI50: > 100 µM (inactive)
[44]
  GI50: > 100 µM (inactive)
[45]
  GI50: > 100 µM (inactive)
[46]
  GI50: > 100 µM (inactive)
[47]
  GI50: > 100 µM (inactive)
[48]
  GI50: > 100 µM (inactive)
[49]
  GI50: > 100 µM (inactive)

## COC(=O)C1SC(SC)=NC12c1ccccc1Nc1ccccc12 (stereo unspecified)
[1]
  GI50: 27 µM (inactive)
[2]
  GI50: 37.4 µM (inactive)
[3]
  GI50: 45.8 µM (inactive)
[4]
  GI50: 19.8 µM (inactive)
[5]
  GI50: 23.9 µM (inactive)
[6]
  GI50: 24.5 µM (inactive)
[7]
  GI50: 40.5 µM (inactive)
[8]
  GI50: 17.2 µM (inactive)
[9]
  GI50: 41.8 µM (inactive)
[10]
  GI50: 30.7 µM (inactive)
[11]
  GI50: 31.7 µM (inactive)
[12]
  GI50: 36.3 µM (inactive)
[13]
  GI50: 21.1 µM (inactive)
[14]
  GI50: 24.7 µM (inactive)
[15]
  GI50: 32.2 µM (inactive)
[50]
  GI50: 18.5 µM (inactive)
[16]
  GI50: 30.1 µM (inactive)
[17]
  GI50: 30.8 µM (inactive)
[51]
  GI50: 17.5 µM (inactive)
[52]
  GI50: 29.5 µM (inactive)
[18]
  GI50: 37.3 µM (inactive)
[19]
  GI50: 22.1 µM (inactive)
[20]
  GI50: 25.7 µM (inactive)
[21]
  GI50: 32.7 µM (inactive)
[22]
  GI50: 29.4 µM
[23]
  GI50: 26.8 µM (inactive)
[24]
  GI50: 16.6 µM (inactive)
[25]
  GI50: 30.3 µM (inactive)
[53]
  GI50: 18 µM (inactive)
[26]
  GI50: 25.2 µM (inactive)
[27]
  GI50: 31.7 µM (inactive)
[28]
  GI50: 35.2 µM (inactive)
[54]
  GI50: 22 µM (inactive)
[29]
  GI50: 19.5 µM (inactive)
[30]
  GI50: 22.1 µM (inactive)
[31]
  GI50: 20.5 µM (inactive)
[32]
  GI50: 21.5 µM (inactive)
[33]
  GI50: 39.9 µM (inactive)
[34]
  GI50: 54.8 µM (inactive)
[35]
  GI50: 21.2 µM (inactive)
[36]
  GI50: 33.3 µM (inactive)
[55]
  GI50: 27.7 µM (inactive)
[37]
  GI50: 32.7 µM (inactive)
[38]
  GI50: 17.5 µM (inactive)
[56]
  GI50: 53.6 µM (inactive)
[39]
  GI50: 51.1 µM (inactive)
[40]
  GI50: 31.8 µM (inactive)
[57]
  GI50: 18.2 µM (inactive)
[41]
  GI50: 67.3 µM (inactive)
[42]
  GI50: 36.6 µM (inactive)
[43]
  GI50: 36.4 µM (inactive)
[58]
  GI50: 41.8 µM (inactive)
[44]
  GI50: 28.3 µM (inactive)
[45]
  GI50: 41.7 µM (inactive)
[46]
  GI50: 28.3 µM (inactive)
[47]
  GI50: 50 µM (inactive)
[48]
  GI50: 20.8 µM (inactive)
[49]
  GI50: 69.2 µM (inactive)

## CC1OC(NCCNCCNC2OC(C)C(O)C(O)C2O)C(O)C(O)C1O (stereo unspecified)
[2]
  GI50: > 100 µM (inactive)
[4]
  GI50: > 100 µM (inactive)
[5]
  GI50: > 100 µM (inactive)
[7]
  GI50: > 100 µM (inactive)
[8]
  GI50: > 100 µM (inactive)
[9]
  GI50: > 100 µM (inactive)
[10]
  GI50: > 100 µM (inactive)
[11]
  GI50: > 100 µM (inactive)
[12]
  GI50: > 100 µM (inactive)
[13]
  GI50: > 100 µM (inactive)
[14]
  GI50: > 100 µM (inactive)
[15]
  GI50: > 100 µM (inactive)
[50]
  GI50: > 100 µM (inactive)
[16]
  GI50: > 100 µM (inactive)
[17]
  GI50: > 100 µM (inactive)
[51]
  GI50: > 100 µM (inactive)
[52]
  GI50: > 100 µM (inactive)
[19]
  GI50: > 100 µM (inactive)
[20]
  GI50: > 100 µM (inactive)
[21]
  GI50: > 100 µM (inactive)
[22]
  GI50: > 100 µM
[23]
  GI50: > 100 µM (inactive)
[24]
  GI50: > 100 µM (inactive)
[25]
  GI50: > 100 µM (inactive)
[53]
  GI50: > 100 µM (inactive)
[26]
  GI50: > 100 µM (inactive)
[27]
  GI50: > 100 µM (inactive)
[28]
  GI50: > 100 µM (inactive)
[54]
  GI50: > 100 µM (inactive)
[29]
  GI50: > 100 µM (inactive)
[59]
  GI50: > 100 µM (inactive)
[30]
  GI50: > 100 µM (inactive)
[31]
  GI50: > 100 µM (inactive)
[32]
  GI50: > 100 µM (inactive)
[33]
  GI50: > 100 µM (inactive)
[34]
  GI50: > 100 µM (inactive)
[35]
  GI50: > 100 µM (inactive)
[36]
  GI50: > 100 µM (inactive)
[55]
  GI50: > 100 µM (inactive)
[37]
  GI50: > 100 µM (inactive)
[38]
  GI50: > 100 µM (inactive)
[56]
  GI50: > 100 µM (inactive)
[39]
  GI50: > 100 µM (inactive)
[57]
  GI50: > 100 µM (inactive)
[41]
  GI50: > 100 µM (inactive)
[42]
  GI50: > 100 µM (inactive)
[43]
  GI50: > 100 µM (inactive)
[58]
  GI50: > 100 µM (inactive)
[44]
  GI50: > 100 µM (inactive)
[45]
  GI50: > 100 µM (inactive)
[46]
  GI50: > 100 µM (inactive)
[47]
  GI50: > 100 µM (inactive)
[48]
  GI50: > 100 µM (inactive)
[49]
  GI50: > 100 µM (inactive)
